{"source": "paper PMC12482674", "about": "(Alzheimer's Research & Therapy, 2025)", "key": {"[1]": {"target": "AD brain-derived tau seeds (Homo sapiens, UniProt P10636, C639S)", "sequence (P10636 1-352 isoform P10636-2 C233S)": "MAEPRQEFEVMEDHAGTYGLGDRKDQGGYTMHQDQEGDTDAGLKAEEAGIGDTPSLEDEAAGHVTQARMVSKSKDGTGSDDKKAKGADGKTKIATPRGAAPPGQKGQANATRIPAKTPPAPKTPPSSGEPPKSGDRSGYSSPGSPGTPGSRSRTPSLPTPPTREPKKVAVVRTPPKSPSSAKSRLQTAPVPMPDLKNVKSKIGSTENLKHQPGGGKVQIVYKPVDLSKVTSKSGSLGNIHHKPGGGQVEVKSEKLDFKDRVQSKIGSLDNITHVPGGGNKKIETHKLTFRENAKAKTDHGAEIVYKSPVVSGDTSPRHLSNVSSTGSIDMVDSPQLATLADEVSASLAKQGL", "assay": "biochemical", "assay_type": "biochemical", "conditions": "for inhibition at 100 µM: read-out: percent inhibition (vehicle AUC 100% minus percent AUC of compound); for percent inhibition (vehicle AUC 100% minus percent AUC of compound): 100 µM"}, "tau": {"target": "tau (Homo sapiens, UniProt P10636, C639S)", "sequence (P10636 1-352 isoform P10636-2 C233S)": "as above", "assay": "Transmission electron microscopy of Tau-SAA end products", "assay_type": "biochemical", "conditions": "SAA end products (total fraction) of 100 µM reactions"}, "2N4R": {"test_system": "2N4R", "conditions": "cited from earlier work"}, "hyperphosphorylated tau": {"test_system": "hyperphosphorylated tau", "conditions": "mouse, in vivo; cited from earlier work"}, "[2]": {"conditions": "patients receiving the drug; cited from earlier work"}, "[3]": {"conditions": "Phase III; cited from earlier work"}, "tau peptides": {"test_system": "tau peptides", "conditions": "cited from earlier work"}, "tau oligomers": {"test_system": "tau oligomers", "conditions": "mouse models; cited from earlier work"}}, "note": "Structures can show the parent of a compound that is named as a salt.", "data": [{"smiles": "CCN(CC)CCCC(C)Nc1c2ccc(Cl)cc2nc2ccc(OC)cc12", "note": "(stereo not drawn) [quinacrine hydrochloride]", "values": [{"measurement": "maximum thioflavin fluorescence (ThT Max)", "setting": "[1]", "result": "reduced ThT Max across all dilutions"}, {"measurement": "time to threshold (TTT)", "setting": "[1]", "result": "only delay TTT at higher dilutions"}]}, {"smiles": "CCN(CC)CCNC(=O)c1c(C)[nH]c(/C=C2\\C(=O)Nc3ccc(F)cc32)c1C", "note": "[Sunitinib]", "values": [{"measurement": "inhibition at 100 µM", "setting": "[1]", "result": 98.6, "unit": "%"}, {"measurement": "aggregates seen by TEM", "setting": "tau", "result": "widespread amyloid-like aggregates"}]}, {"smiles": "Oc1cc(O)c2c(c1)O[C@H](c1ccc(O)c(O)c1)[C@@H](O)C2", "note": "[(+)-catechin]", "values": [{"measurement": "percent inhibition (vehicle AUC 100% minus percent AUC of compound)", "setting": "[1]", "result": 89, "unit": "%"}]}, {"smiles": "Brc1cccc(-c2cc(-c3ccc4c(c3)OCO4)[nH]n2)c1", "note": "[anle138b]", "values": [{"measurement": "inhibition at 100 µM", "setting": "[1]", "result": -25.9, "unit": "%"}, {"measurement": "inhibition of spontaneous 2N4R aggregate formation", "setting": "2N4R", "result": "inhibits the in vitro formation of spontaneous 2N4R aggregates"}, {"measurement": "hyperphosphorylated tau burden and survival", "setting": "hyperphosphorylated tau", "result": "reduces hyperphosphorylated tau burden and prolongs survival"}]}, {"smiles": "O=c1c(O)c(-c2cc(O)c(O)c(O)c2)oc2cc(O)cc(O)c12", "note": "[myricetin]", "values": [{"measurement": "inhibition at 100 µM", "setting": "[1]", "result": "> 95", "unit": "%"}]}, {"smiles": "CC(=O)c1c(O)c(C)c(O)c2c1OC1=CC(=O)C(C(C)=O)C(=O)C12C", "note": "(stereo not drawn) [usnic acid]", "values": [{"measurement": "inhibition at 100 µM", "setting": "[1]", "result": 21.5, "unit": "%"}]}, {"smiles": "O=S(=O)(O)c1cc(S(=O)(=O)O)c2c(/N=N/c3ccccc3)c(O)ccc2c1", "note": "[Orange-G]", "values": [{"measurement": "inhibition at 100 µM", "setting": "[1]", "result": 39, "unit": "%"}]}, {"smiles": "CN(C)c1ccc2nc3ccc(=[N+](C)C)cc-3sc2c1", "note": "[Methylene Blue]", "values": [{"measurement": "inhibition at 100 µM", "setting": "[1]", "result": "> 99", "unit": "%"}]}, {"smiles": "Cc1ccc(C(=O)c2cc(O)c(O)c([N+](=O)[O-])c2)cc1", "note": "[tolcapone]", "values": [{"measurement": "inhibition at 100 µM", "setting": "[1]", "result": 78, "unit": "%"}]}, {"smiles": "O=C(c1cc(O)c(O)c(O)c1)c1ccc(O)c(O)c1O", "note": "[Exifone]", "values": [{"measurement": "IC50", "setting": "[1]", "result": 11.2, "unit": "µM"}, {"measurement": "inhibition at 100 µM", "setting": "[1]", "result": "> 95", "unit": "%"}]}, {"smiles": "COc1cc(/C=C/C(=O)CC(=O)/C=C/c2ccc(O)c(OC)c2)ccc1O", "note": "[curcumin]", "values": [{"measurement": "cognitive outcome", "setting": "[2]", "result": "improvements in attention, long-term retrieval, and visual memory"}, {"measurement": "tau and Aβ burden by PET ligand binding", "setting": "[2]", "result": "decreased tau and Aβ burden"}]}, {"smiles": "COc1ccc2c(c1)c(CC(=O)O)c(C)n2C(=O)c1ccc(Cl)cc1", "note": "[Indomethacin]", "values": [{"measurement": "aggregates seen by TEM", "setting": "tau", "result": "widespread amyloid-like aggregates"}]}, {"smiles": "CN(C)c1ccc2c(c1)Sc1cc(N(C)C)ccc1N2.CS(=O)(=O)O.CS(=O)(=O)O", "note": "[LMTX]", "values": [{"measurement": "primary efficacy outcomes", "setting": "[3]", "result": "did not reach primary efficacy outcomes"}]}, {"smiles": "CN(C)c1ccc2nc3ccc(N)cc3[s+]c2c1.[Cl-]", "note": "[Azure A, azure A]", "values": [{"measurement": "maximum thioflavin fluorescence (ThT Max)", "setting": "[1]", "result": "approaching the baseline"}, {"measurement": "percent inhibition (vehicle AUC 100% minus percent AUC of compound)", "setting": "[1]", "result": "> 95", "unit": "%"}]}, {"smiles": "CC[C@@]1(O)C(=O)OCc2c1cc1n(c2=O)Cc2cc3c(CN(C)C)c(O)ccc3nc2-1", "note": "[topotecan]", "values": [{"measurement": "inhibition at 100 µM", "setting": "[1]", "result": 92, "unit": "%"}, {"measurement": "inhibition of fibrillization of tau peptides", "setting": "tau peptides", "result": "only mildly inhibited"}]}, {"smiles": "Nc1ccc2nc3ccc(N)cc3[s+]c2c1", "note": "[Thionin, thionin]", "values": [{"measurement": "maximum thioflavin fluorescence (ThT Max)", "setting": "[1]", "result": "approaching the baseline"}, {"measurement": "percent inhibition (vehicle AUC 100% minus percent AUC of compound)", "setting": "[1]", "result": "over 99%"}]}, {"smiles": "O=c1cc(-c2ccccc2)oc2cc(O)c(O)c(O)c12", "note": "[baicalein]", "values": [{"measurement": "inhibition at 100 µM", "setting": "[1]", "result": "> 95", "unit": "%"}]}, {"smiles": "CO[C@H]1/C=C/O[C@@]2(C)Oc3c(C)c(O)c4c(O)c(c(/C=N/N5CCN(C)CC5)c(O)c4c3C2=O)NC(=O)/C(C)=C\\C=C\\[C@H](C)[C@H](O)[C@@H](C)[C@@H](O)[C@@H](C)[C@H](OC(C)=O)[C@@H]1C", "note": "[Rifampin]", "values": [{"measurement": "spread of tau oligomers and cognitive function", "setting": "tau oligomers", "result": "limit the spread of tau oligomers and improve cognitive function"}, {"measurement": "aggregates seen by TEM", "setting": "tau", "result": "devoid of fibrillar amyloid structures"}]}, {"smiles": "CNc1ccc2nc3ccc(N)cc3[s+]c2c1", "note": "[azure C]", "values": [{"measurement": "inhibition at 100 µM", "setting": "[1]", "result": "> 95", "unit": "%"}]}, {"smiles": "O=C(/C=C/c1ccc(O)c(O)c1)O[C@H](Cc1ccc(O)c(O)c1)C(=O)O", "note": "[rosmarinic acid]", "values": [{"measurement": "inhibition at 100 µM", "setting": "[1]", "result": "> 95", "unit": "%"}]}, {"smiles": "Nc1c(/N=N/c2ccc(-c3ccc(/N=N/c4cc(S(=O)(=O)O)c5ccccc5c4N)cc3)cc2)cc(S(=O)(=O)O)c2ccccc12", "note": "[Congo Red, Congo red]", "values": [{"measurement": "maximum thioflavin fluorescence (ThT Max)", "setting": "[1]", "result": "approaching the baseline"}, {"measurement": "inhibition at 100 µM", "setting": "[1]", "result": "> 95", "unit": "%"}]}, {"smiles": "C=CCc1ccc(O)c(-c2ccc(O)c(CC=C)c2)c1", "note": "[honokiol]", "values": [{"measurement": "inhibition at 100 µM", "setting": "[1]", "result": 94, "unit": "%"}]}, {"smiles": "CNc1ccc2nc3ccc(=[N+](C)C)cc-3sc2c1.[Cl-]", "note": "[azure B]", "values": [{"measurement": "percent inhibition (vehicle AUC 100% minus percent AUC of compound)", "setting": "[1]", "result": "> 95", "unit": "%"}]}, {"smiles": "COc1cccc2c1C(=O)c1c(O)c3c(c(O)c1C2=O)C[C@@](O)(C(=O)CO)C[C@@H]3O[C@H]1C[C@H](N)[C@@H](O)[C@H](C)O1", "note": "[Epirubicin]", "values": [{"measurement": "IC50", "setting": "[1]", "result": 6.6, "unit": "µM"}, {"measurement": "inhibition at 100 µM", "setting": "[1]", "result": "> 99", "unit": "%"}]}]}
